Source: patent US20020077352A1, “N-methyl-D-aspartate receptor antagonists” (priority 2000, published 2002)
Read-outs that look alike come from different tables or passages of the source.

Assays:
NMDARs = test: whole-cell patch clamp, NMDA-evoked currents in cultured mouse cortical neurons; assay type: cell-based
Procedure: NMDA (200 μM) alone, NMDA plus aqueous Salvia miltiorrhiza extract (100 μl in 10 ml Hanks solution) and NMDA plus 20 nM tanshinone IIA were applied for about 3 seconds (black bars) in the continuous presence of glycine (10 μM) and absence of Mg^2+.
The ordinate indicates the percent steady-state block of currents evoked by 200 μM NMDA plus 10 μM glycine in the absence of Mg^2+.
NMDA (100 μM) or increasing concentrations of NMDA (100 μM-1600 μM) plus tanshinone IIA (20 nM) were applied for about 3 seconds (indicated by the black bars) in the continuous presence of glycine (10 μM) and absence of Mg^2+,
I/V curves were constructed by subtracting the response in the presence of NMDA (200 μM) plus tanshinone from the control response during the application of NMDA alone for 2 seconds at membrane holding potentials from −60 mV to +60 mV. Data from 2 to 5 sweeps were averaged for each trace.
(§1) The whole-cell patch clamp technique was used in mouse cortical neuronal cultures in order to screen for NMDAR antagonists in Danshen, the root of Salvia milthiorriza Bunge. […] Tanshinones are plant-derived diterpenoid quinones.
The concentration dependence of the steady-state block of NMDA-induced currents was determined in order to obtain the dose/response curve of the NMDAR antagonist action of the tanshinones (FIG. 2). The data were fit according to a logistic equation and the concentration at which 50% of the NMDA-evoked response was blocked (IC50) was calculated from the equation.
Concentration-response curves were obtained in the presence of a saturating dose of tanshinone and increasing amounts of NMDA in cultured mouse cortical neurons (FIG. 3a).
The voltage-dependence of the inhibitory effects of the tanshinones was assessed by constructing current/voltage (I/V) plots in the presence or absence of the drugs (FIG. 3b).

[1] = molecular target: T1, recombinant NMDARs composed of NR1 and NR2D subunits (Homo sapiens, UniProt O15399+Q05586); test: NMDA-induced current in transiently transfected HEK293 cells expressing recombinant NR1/NR2D NMDARs; assay type: cell-based; details: for block of the NMDA-induced current, NR1/NR2D: 100 nM, co-application of NMDA and glycine, absence of Mg2+
T1 construct: expressed in transfected cells; host or cells: HEK293, transiently transfected
Excerpt: (§2) This example also compared the blocking efficacy of the tanshinones in transiently transfected human embryonic kidney (HEK) 293 cells expressing recombinant NMDARs containing either the NR1/NR2B or NR1/NR2D subunit combinations.

[2] = test system: central benzodiazepine receptors; details: cited from earlier work
AMPA receptors = test: whole-cell patch clamp, currents activated by AMPA in mouse cultured cortical neurons; assay type: cell-based; details: AMPA 10 μM; 100 nM compound
Excerpt: as §1
(§3) The present example examined whether tanshinones inhibited currents of AMPA and GABAA receptors evoked by AMPA or GABA, respectively.

[3] = molecular target: T2, recombinant NMDARs composed of the NR1 and NR2B subunits (Homo sapiens, UniProt Q05586+Q13224); test: NMDA-induced current in transiently transfected HEK293 cells expressing recombinant NR1/NR2B NMDARs; assay type: cell-based
T2 construct: expressed in transfected cells; host or cells: HEK293, transiently transfected
Excerpt: as §2

GABAA receptors = test: whole-cell patch clamp, currents activated by GABA in cultured cortical neurons; assay type: cell-based, mouse; details: GABA 20 μM; n=3
Excerpt: as §1, §3

[4] = 200 μM NMDA plus 10 μM glycine, absence of Mg2+; 95% confidence interval given in brackets; read-out: IC50, steady-state block of NMDA-induced currents
[5] = I/V plots, holding potentials −60 mV to +60 mV
[6] = purified tanshinones, patch-clamp assay (20 nM, FIG. 1d)

T1 sequence (O15399 28-1336, other chains not shown): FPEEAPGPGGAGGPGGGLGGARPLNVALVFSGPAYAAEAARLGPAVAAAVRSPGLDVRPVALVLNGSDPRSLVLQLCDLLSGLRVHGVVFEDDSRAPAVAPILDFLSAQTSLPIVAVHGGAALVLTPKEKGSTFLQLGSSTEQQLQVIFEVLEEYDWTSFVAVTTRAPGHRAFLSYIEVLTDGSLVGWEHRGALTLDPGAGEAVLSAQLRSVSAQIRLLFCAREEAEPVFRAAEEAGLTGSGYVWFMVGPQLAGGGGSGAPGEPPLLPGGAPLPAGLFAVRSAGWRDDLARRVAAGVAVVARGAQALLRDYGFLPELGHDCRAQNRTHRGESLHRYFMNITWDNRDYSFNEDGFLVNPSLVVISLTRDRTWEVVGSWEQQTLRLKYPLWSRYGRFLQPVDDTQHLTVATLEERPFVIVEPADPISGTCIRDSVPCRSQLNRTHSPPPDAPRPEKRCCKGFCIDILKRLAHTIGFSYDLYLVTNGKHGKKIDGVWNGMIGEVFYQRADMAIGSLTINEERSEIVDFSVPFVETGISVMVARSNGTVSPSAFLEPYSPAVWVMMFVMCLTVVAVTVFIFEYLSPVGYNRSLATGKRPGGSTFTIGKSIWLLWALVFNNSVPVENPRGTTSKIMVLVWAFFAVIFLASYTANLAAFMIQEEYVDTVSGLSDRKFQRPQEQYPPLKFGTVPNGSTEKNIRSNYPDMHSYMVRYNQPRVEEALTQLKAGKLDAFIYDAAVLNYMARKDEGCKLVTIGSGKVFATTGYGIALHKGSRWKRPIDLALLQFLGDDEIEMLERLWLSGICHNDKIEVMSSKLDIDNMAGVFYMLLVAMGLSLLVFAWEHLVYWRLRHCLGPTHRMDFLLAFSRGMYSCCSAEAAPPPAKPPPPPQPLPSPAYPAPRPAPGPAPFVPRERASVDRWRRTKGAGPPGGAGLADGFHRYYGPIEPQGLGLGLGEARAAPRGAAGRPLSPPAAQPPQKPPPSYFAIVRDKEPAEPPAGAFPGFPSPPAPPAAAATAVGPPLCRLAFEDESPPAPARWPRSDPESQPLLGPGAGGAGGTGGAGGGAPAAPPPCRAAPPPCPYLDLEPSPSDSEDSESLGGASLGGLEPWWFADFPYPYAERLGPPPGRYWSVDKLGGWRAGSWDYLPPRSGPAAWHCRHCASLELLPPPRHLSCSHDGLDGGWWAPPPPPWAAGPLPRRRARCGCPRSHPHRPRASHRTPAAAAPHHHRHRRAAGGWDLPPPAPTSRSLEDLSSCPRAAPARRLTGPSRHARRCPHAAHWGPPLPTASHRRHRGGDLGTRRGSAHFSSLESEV
T2 sequence (Q13224 27-1484, other chains not shown): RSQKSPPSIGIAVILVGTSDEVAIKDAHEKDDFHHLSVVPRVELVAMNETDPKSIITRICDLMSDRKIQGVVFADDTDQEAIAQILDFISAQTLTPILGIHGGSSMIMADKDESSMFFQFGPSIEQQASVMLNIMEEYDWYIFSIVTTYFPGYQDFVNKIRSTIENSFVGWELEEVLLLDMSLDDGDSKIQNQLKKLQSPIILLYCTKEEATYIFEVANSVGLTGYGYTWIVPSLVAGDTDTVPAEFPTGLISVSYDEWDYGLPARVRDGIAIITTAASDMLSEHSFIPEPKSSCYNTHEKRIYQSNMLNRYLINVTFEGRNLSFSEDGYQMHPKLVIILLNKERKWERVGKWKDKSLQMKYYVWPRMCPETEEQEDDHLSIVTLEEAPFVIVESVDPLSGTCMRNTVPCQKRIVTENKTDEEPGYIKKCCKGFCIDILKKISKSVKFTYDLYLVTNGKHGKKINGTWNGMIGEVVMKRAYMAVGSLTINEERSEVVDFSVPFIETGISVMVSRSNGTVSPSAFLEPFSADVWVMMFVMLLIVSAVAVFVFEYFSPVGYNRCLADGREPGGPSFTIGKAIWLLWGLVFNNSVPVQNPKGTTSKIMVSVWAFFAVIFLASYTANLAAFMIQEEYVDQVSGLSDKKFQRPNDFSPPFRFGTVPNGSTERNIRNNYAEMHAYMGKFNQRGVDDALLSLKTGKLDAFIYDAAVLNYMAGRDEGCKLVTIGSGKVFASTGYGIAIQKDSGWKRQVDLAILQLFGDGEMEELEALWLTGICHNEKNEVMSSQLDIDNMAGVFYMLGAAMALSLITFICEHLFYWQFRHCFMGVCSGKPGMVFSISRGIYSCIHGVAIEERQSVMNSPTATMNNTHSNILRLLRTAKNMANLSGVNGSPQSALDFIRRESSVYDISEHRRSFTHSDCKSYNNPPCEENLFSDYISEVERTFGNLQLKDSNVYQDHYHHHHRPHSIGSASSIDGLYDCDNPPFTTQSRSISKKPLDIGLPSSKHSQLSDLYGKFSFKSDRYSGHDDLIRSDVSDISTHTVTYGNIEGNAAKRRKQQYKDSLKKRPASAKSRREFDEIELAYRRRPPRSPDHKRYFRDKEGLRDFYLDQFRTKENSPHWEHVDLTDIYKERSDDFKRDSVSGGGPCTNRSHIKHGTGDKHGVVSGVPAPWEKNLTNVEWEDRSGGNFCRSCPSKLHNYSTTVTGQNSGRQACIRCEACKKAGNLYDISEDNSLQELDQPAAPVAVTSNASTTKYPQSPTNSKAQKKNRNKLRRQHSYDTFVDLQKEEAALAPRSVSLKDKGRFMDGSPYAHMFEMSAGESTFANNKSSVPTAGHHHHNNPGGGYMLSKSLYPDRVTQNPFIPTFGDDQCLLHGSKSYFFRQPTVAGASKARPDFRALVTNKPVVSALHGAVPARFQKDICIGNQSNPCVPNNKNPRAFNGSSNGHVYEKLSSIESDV

Row | Structure (SMILES) | IC50 (NMDARs; read-out: IC50, steady-state block of NMDA-induced currents; 200 μM NMDA plus 10 μM glycine, absence of Mg2+; 95% confidence interval given in brackets) [nM] | block of the NMDA-induced current, NR1/NR2D [1] [%] | IC50 (NMDARs; [4]) [nM] | voltage-dependence of inhibition of NMDA-induced whole-cell currents (NMDARs; [5]) | inhibition of the NMDA-induced currents (NMDARs; [6]) | activity at central benzodiazepine receptors [2] | inhibition of currents activated by AMPA (AMPA receptors) [%] | voltage-dependence of inhibition, NR2B containing receptors [3] | mode of inhibition with respect to agonist NMDA and co-agonist glycine (NMDARs; fixed saturating dose of tanshinone (20 nM), increasing NMDA 100-1600 μM) | block of currents activated by GABA (GABAA receptors) [%] | voltage-dependence of inhibition, NR2D containing receptors ([1]; greatly reduced efficacy at positive potentials)
1 | C[C@H]1COC2=C1C(=O)C(=O)c1c2ccc2c1CCCC2(C)C [cryptotanshinone] | 1.7 | 10±1 | – | – | – | – | – | – | – | – | –
2 | CC(C)C1=Cc2ccc3c(c2C(=O)C1=O)CCCC3(C)C [miltirone] | – | 11±2 | 2.1 | voltage-independent | strong, but readily reversible inhibition | partial agonists | – | – | – | – | –
3 | Cc1coc2c1C(=O)C(=O)c1c-2ccc2c1CCCC2(C)C [tanshinone IIA] | – | 61±11 | 3.4 | voltage-independent | strong, but readily reversible inhibition | – | 6±3 | voltage-independent | non-competitive inhibition | 10±3 | voltage-dependent
4 | Cc1coc2c1C(=O)C(=O)c1c-2ccc2c1CCCC2(C)CO (stereo not drawn) [tanshinone IIB] | – | 52±11 | 1.1 | voltage-independent | strong, but readily reversible inhibition | – | – | – | – | – | –
5 | Cc1coc2c1C(=O)C(=O)c1c-2ccc2c(C)cccc12 [tanshinone I] | – | 4±1 | 3.7 | voltage-independent | strong, but readily reversible inhibition | – | – | – | – | – | –
